Laboratory results reported in US8217155B2 (Gilead Colorado, Inc., priority 2007, dated 2012).
Where two headings read alike, the source gives them in different places.

What was measured:
[1] = molecular target: T1, human ETB receptors expressed in CHO cells (Homo sapiens, UniProt P24530); test: In vitro ETB receptor binding, [125I]-labeled ET-3 displacement; settings: incubation time 30 minutes, not steady-state; read-out: Ki ± SE, ETB
T1 construct: expressed in transfected cells; host or cells: CHO cells (membranes)
T1 sequence (P24530 27-442): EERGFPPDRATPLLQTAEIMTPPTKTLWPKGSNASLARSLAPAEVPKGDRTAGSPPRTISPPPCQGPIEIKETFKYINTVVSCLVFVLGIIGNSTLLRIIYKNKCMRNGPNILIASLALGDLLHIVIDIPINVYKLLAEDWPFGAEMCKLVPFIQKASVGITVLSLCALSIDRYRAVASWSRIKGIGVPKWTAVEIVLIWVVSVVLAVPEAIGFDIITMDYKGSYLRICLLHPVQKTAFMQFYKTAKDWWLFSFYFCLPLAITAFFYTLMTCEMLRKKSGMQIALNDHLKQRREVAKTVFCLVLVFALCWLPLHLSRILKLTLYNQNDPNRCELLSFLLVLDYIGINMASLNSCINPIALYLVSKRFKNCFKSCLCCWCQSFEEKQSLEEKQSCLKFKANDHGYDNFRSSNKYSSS
Procedure: (§1) The test compounds are dissolved at 10^−2M in methanol: Cremophor EL® 100:1 and diluted in deionized water to concentrations of […] to 10^−6 M. Binding reactions are initiated by addition of [^125I]-labeled ET-1 or [^125I]-labeled ET-3 for the ETA and ETB receptors, respectively, after 2 minutes preincubation of the membranes in the presence of Metabolite B or Metabolite C. The specific radioligand binding to each receptor is calculated as the difference between total binding and non-specific binding, determined in the presence of an excess of unlabeled ET-1. IC; values are determined by nonlinear curve fitting from experiments performed with 3 concentrations of test compound.

[2] = molecular target: T2, human ETA receptors expressed in CHO cells (Homo sapiens, UniProt P25101); test: In vitro ETA receptor binding, [125I]-labeled ET-1 displacement; settings: incubation time 30 minutes; for affinity for the ETA receptor relative to that for the ETB receptor: CHO cells; for Ki: not steady-state, read-out: Ki ± SE, ETA
T2 construct: expressed in transfected cells; host or cells: CHO cells (membranes)
T2 sequence (P25101 21-427): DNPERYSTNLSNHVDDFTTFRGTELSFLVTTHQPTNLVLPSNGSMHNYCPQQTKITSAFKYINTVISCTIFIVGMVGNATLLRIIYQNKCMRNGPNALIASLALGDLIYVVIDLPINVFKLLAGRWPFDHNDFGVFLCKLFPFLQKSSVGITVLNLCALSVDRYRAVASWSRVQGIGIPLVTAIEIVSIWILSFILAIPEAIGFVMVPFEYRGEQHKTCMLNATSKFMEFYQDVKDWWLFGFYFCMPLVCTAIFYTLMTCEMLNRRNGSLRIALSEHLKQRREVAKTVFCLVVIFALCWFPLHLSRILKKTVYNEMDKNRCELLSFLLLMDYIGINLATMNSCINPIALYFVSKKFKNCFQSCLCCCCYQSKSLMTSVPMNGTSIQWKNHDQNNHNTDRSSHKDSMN
Procedure: as §1

[3] = In vivo excretion in dogs; settings: dog, after single 3 mg/kg oral dose of ambrisentan
[4] = In vitro metabolism in rat hepatocytes; format: in vitro ADME; settings: 24-hour period
[5] = molecular target: T3, ETA receptor (Homo sapiens, UniProt P25101); settings: human ventricular tissue; cited from earlier work
T3 construct: Studies performed in human ventricular tissue with ambrisentan; from tissue; host or cells: human ventricular tissue
T3 sequence (P25101 21-427): T2 sequence (P25101 21-427)

[6] = system: CYP isoenzymes; test: Reaction phenotyping with microsomes expressing single CYP isoenzymes; format: in vitro ADME
Description: (§2) Reaction phenotyping using microsomes expressing single CYP isoenzymes or uridine diphosphate glucuronosyl transferase (UGT) isoenzymes are used to identity those enzymes that are sufficient to metabolize ambrisentan in vitro.

[7] = system: uridine diphosphate glucuronosyl transferase (UGT) isoenzymes; test: Reaction phenotyping with microsomes expressing single UGT isoenzymes; format: in vitro ADME
Description: as §2

[8] = Biliary excretion and enterohepatic circulation in rats; format: in vivo, male rats
Procedure: Bile and urine are collected over a 24-hour period. […] To assess enterohepatic circulation, a second set of rats (acceptor rats) is intraduodenally dosed with pooled bile (0-12 hour period) from the first set of rats (donor rats), and bile and urine are again collected over a 24-hour period. […] The metabolite patterns in bile from donor and acceptor rats are similar.

[9] = Biliary excretion in dogs; settings: 10 mg/kg intraduodenal, eight hours post-administration
[10] = Isolated perfused rat liver model; format: in vitro ADME, male Wistar rats; settings: for cumulative excretion of total radioactivity in the bile: six hours; for decrease of total radioactivity in the perfusate: six hours post-dose
Procedure: The metabolic pathways of ambrisentan in male Wistar rats are investigated using the isolated perfused rat liver model. […] The livers are removed from 2 animals in each dose group and perfused in a recirculating system for 6 hours and the metabolite pattern of the perfusion medium and bile determined.

[11] = In vivo excretion in rats; settings: ADME studies
[12] = In vitro metabolism in liver microsomes (phase I); format: in vitro ADME; settings: rat, dog, and human liver microsomes
[13] = In vitro metabolism in human hepatocytes; format: in vitro ADME; settings: 24-hour period
[14] = In vitro metabolism in dog hepatocytes; settings: 24-hour period
[15] = cited from earlier work
[16] = dog, in vivo, po, 3 mg/kg
[17] = both, dog, in vivo, 10 mg/kg
[18] = dog, human, 24 h
[19] = donor rats, intraduodenal, within 24 hours

Structure (SMILES): Cc1cc(C)nc(OC(C(=O)O)C(O)(c2ccccc2)c2ccccc2)n1 (racemic) [Metabolite C]
- Ki [1]: 0.556 ± 0.0436 µM
- affinity for the ETA receptor relative to that for the ETB receptor [2]: about 100 times
- Ki [2]: 0.0222 ± 0.0042 µM

Structure (SMILES): Cc1cc(C)nc(O)n1 [4,6-dimethyl-2hydroxypyrimidine, 4,6-dimethyl-2-hydroxypyrimidine]
- metabolite pattern in excreta [3]: main metabolite in urine

Structure (SMILES): COC(c1ccccc1)(c1ccccc1)[C@H](Oc1nc(C)cc(C)n1)C(=O)O [Ambrisentan, (S)-2-[(4,6-dimethylpyrimidin-2-yl)oxy]-3-methoxy-3,3-diphenylpropionic acid]
- metabolized by phase II pathway [4]: 15%
- affinity for the ETA receptor [5]: high affinity (low Ki)
- Ki [2]: 0.00063 ± 0.0002 µM
- CYP isoenzymes that oxidatively metabolize the compound [6]: CYP3A4, CYP2C19, and CYP3A5
- UGT isoenzymes that glucuronidate the compound [7]: UGT1A9S, UGT2B7S, and UGT1A3S
- total radioactivity recovered in the bile of acceptor rats ([8]; acceptor rats dosed intraduodenally with pooled donor bile, 24-hour period): 76.5-94%
- total radioactivity recovered from the bile [8, 19]: 94.8%
- total radioactivity recovered from the urine [8, 19]: 1.5%
- share of parent compound among metabolic species in bile ([8]; rats, biliary excretion study): 95%
- total radioactivity excreted into the bile ([9]; female dogs): 47%
- total radioactivity excreted into the bile ([9]; male dogs): 54%
- cumulative excretion of total radioactivity in the bile ([10]; 3 mg/kg dose): 25%
- decrease of total radioactivity in the perfusate ([10]; 3 mg/kg dose): 55%
- cumulative excretion of total radioactivity in the bile ([10]; 10 mg/kg dose): 30%
- decrease of total radioactivity in the perfusate ([10]; 10 mg/kg dose): 55%
- cumulative excretion of total radioactivity in the bile ([10]; 30 mg/kg dose): 31%
- decrease of total radioactivity in the perfusate ([10]; 30 mg/kg dose): 45%
- share of parent compound among metabolic species in feces [11]: ca. 80%
- turnover of parent compound to hydroxylated metabolite (Metabolite B) [12]: 3-4%
- radiolabeled ambrisentan metabolized by phase II pathway [13]: 21%
- radiolabeled ambrisentan metabolized by phase II pathway [14]: 25%
- mean 6MWD, mean increase from baseline ([15]; all patients, after 12 weeks of treatment): 36 meters
- primary efficacy endpoint (exercise capacity measured by 6MWD) ([15]; phase II trials, all four dose groups): statistically significant and clinically meaningful increase

Structure (SMILES): COC(c1ccccc1)(c1ccccc1)[C@H](Oc1nc(C)cc(C)n1)C(=O)O[C@@H]1O[C@H](C(=O)O)[C@@H](O)[C@H](O)[C@H]1O [Metabolite A, (2S,3S,4S,5R,6S)-6-((S)-2-(4,6-Dimethylpyrimidin-2-yloxy)-3-methoxy-3,3-diphenylpropanoyloxy)-3,4,5-trihydroxytetrahydro-2H-pyran-2-carboxylic acid]
- metabolite pattern in excreta [16]: main metabolite in feces
- share of the total radioactivity in bile [17]: 77-81%

Structure (SMILES): COC(c1ccccc1)(c1ccccc1)[C@H](Oc1nc(C)cc(CO)n1)C(=O)O [Metabolite B, (S)-2-(4-(Hydroxymethyl)-6-methylpyrimidin-2-yloxy)-3-methoxy-3,3-diphenylpropanoic acid]
- Ki [1]: 4.1 ± 0.322 µM
- affinity for the ETA receptor relative to that for the ETB receptor [2]: about 100 times
- Ki [2]: 0.0403 ± 0.0061 µM
- amount of hydroxylated metabolite detected [18]: < 1%
